Assay results published in paper PMC9330922, “Genomewide Analysis and Biological Characterization of Cathelicidins with Potent Antimicrobial Activity and Low Cytotoxicity from Three Bat Species” (Antibiotics, 2022).
Like-named read-outs stand apart in the source and are kept apart here.

Legend:
Assay in all cases: microbe, parasite or virus in culture
Type in all cases: cell-based
[1] = system: Mucor hiemalis KCTC 26779; conditions: KCTC26779, concentration not given, peptides tested at 20, 40, and 80 µg/mL, fluvastatin sodium 70 µM, read-out: rate of metabolic inhibition
Description: To evaluate the antifungal activity of peptides against M. hiemalis, the metabolic activity of hyphae was measured using the same colorimetric assay as described above, with slight modifications to a previous study. Briefly, M. hiemalis was streaked onto malt extract broth (BD Biosciences) agar in a Petri dish and cultured at 25 °C for seven days. Then, conidia were collected from the dish by adding phosphate buffered saline (PBS) containing 0.05% Tween-80 (Sigma Aldrich) and filtered through sterilized 40 um cell strainer (SPL Life Science, Pocheon, Korea) to remove hyphae. After washing twice with PBS and centrifugation, 5 × 10^4 conidia were counted using a hemocytometer, suspended in 50 µL of RPMI 1640 as described above, and seeded in wells of a 96-well plate. After 16 h of incubation at 25 °C for hyphae formation, the plate was centrifuged at 3000× g and the media were changed. The peptides were then added at final concentrations of 20, 40, and 80 µg/mL. Fluvastatin sodium (70 µM; Sigma-Aldrich) was used as a reference for antifungal activity. […] The absorbance at 450 nm (for the treated group and control) and 650 nm (for the background) was measured for each well using a microplate reader (xMarkTM spectrophotometer; Bio-Rad). The metabolic activity of the fungal cells was calculated using the following equation. […]

[2] = system: Cryptococcus cuniculi KCTC 17232; conditions: WST colorimetric
Description: (§1) The antifungal activities of the peptides were evaluated against two yeast fungi, C. albicans KCTC 7270 and C. cuniculi KCTC 17232, and a mold fungus, M. hiemalis KCTC 26779. C. albicans and C. cuniculi were cultured in yeast mold broth (YMB; BD Science) agar at 35 °C and 25 °C, respectively. Cells were prepared in YMB for C. albicans and RPMI 1640 medium (with l-glutamine, without phenol red and sodium bicarbonate, Sigma Aldrich, Saint Louis, MO, USA) and adjusted to pH 7.0 with 0.165 M 3-(N-morpholino) propanesulfonic acid (MOPS) (iNtRON Biotechnology, Seoul, Korea), as previously described for C. cuniculi. According to the 0.5 McFarland standard, cells at 1.5 × 10^5 CFU/well were seeded into a 96-well plate containing 180 µL of fresh medium. Subsequently, peptides at final concentrations of 5–45 ug/mL (1.2–19.3 μM) peptides were added to each well. Ciclopirox (≥98% (HPLC), Sigma Aldrich) was used as a reference for the antifungal activity. The antifungal assay was conducted in the same manner as the antibacterial assay described above, according to the manufacturer’s protocol. Briefly, C. albicans and C. cuniculi were incubated at 35 °C for 6 h and 25 °C for 47 h, respectively, and 10 µL of the coloring reagent was added and further incubated for 18 h and 25 h. The MIC values were determined in the same way as for the antibacterial assay.

[3] = system: Candida albicans KCTC 7270; conditions: WST colorimetric, YMB
Description: as §1

Row | SMILES | inhibition at 70 µM [1] | MIC ([2]; Cryptococcus, KCTC17232, value in brackets, RPMI 1640 with MOPS pH 7.0, 25 °C 47 h + 25 h, read-out: MIC) | MIC ([2]; RPMI 1640 with MOPS pH 7.0, 1.5 × 10^5 CFU/well, 25 °C 47 h + 25 h coloring reagent) | MIC ([3]; Candida albicans, KCTC7270, value in brackets, 35 °C 6 h + 18 h, read-out: MIC (converted)) | MIC ([3]; 1.5 × 10^5 CFU/well, 35 °C 6 h + 18 h coloring reagent)
1 | CC(C)n1c(/C=C/C(O)CC(O)CC(=O)O)c(-c2ccc(F)cc2)c2ccccc21 (centres unmarked) [fluvastatin sodium, Fluvastatin sodium] | ~80% | – | – | – | –
2 | Cc1cc(C2CCCCC2)n(O)c(=O)c1 [Ciclopirox] | – | 2.4 µM | 0.5 µg/mL | 16.9 µM | 3.5 µg/mL
